{
  "source": "patent US20250144314A1",
  "about": "“VITAMIN K1 INJECTION DEVICE KIT” (ORBICULAR PHARMACEUTICAL TECHNOLOGIES PRIVATE LIMITED, priority 2022, published 2025)",
  "origin": "cited, not measured here",
  "settings": "estimate",
  "data": [
    {"smiles": "CC1=C(C/C=C(\\C)CCC[C@H](C)CCC[C@H](C)CCCC(C)C)C(=O)c2ccccc2C1=O", "note": "[vitamin K, Phytonadione]", "values": [
      {"measurement": "absorbed vitamin K excreted from the body", "value": "over 60%"}
    ]}
  ]
}
